In ChEMBL document CHEMBL1212752, “Efficacy of posaconazole in a murine disseminated infection by Candida tropicalis” (2010):
Converted amounts (≈) assume the structure as drawn. The source made the active and inactive calls. No cut-off for these calls is given here.

Legend:
Candida tropicalis [1] = assay: Antifungal activity against Candida tropicalis FMR 10240 assessed as compound concentration causing =>99% reduction in microbial growth; format: functional
Candida tropicalis [2] = assay: Antifungal activity against Candida tropicalis FMR 9727 assessed as inhibition of growth by broth dilution method; format: functional
Candida tropicalis [3] = assay: Antifungal activity against Candida tropicalis FMR 9726 infected in immunosuppressed OF1 mouse assessed as prolongation of mouse survival at 50 mg/kg, po qd for 5 days; format: functional, organism-based; design: dose 50 mg/kg
Candida tropicalis [4] = assay: Antifungal activity against Candida tropicalis FMR 10241 assessed as compound concentration causing =>99% reduction in microbial growth; format: functional
Candida tropicalis [5] = assay: Antifungal activity against Candida tropicalis FMR 8895 infected in immunosuppressed OF1 mouse assessed as reduction in fungal tissue burden in mouse kidney at 25 mg/kg, po bid for 5 days; format: functional, organism-based; design: dose 25 mg/kg
Candida tropicalis [6] = assay: Antifungal activity against Candida tropicalis FMR 9727 infected in immunosuppressed OF1 mouse assessed as reduction in fungal tissue burden in mouse kidney at 50 mg/kg, po qd for 5 days; format: functional, organism-based; design: dose 50 mg/kg
Candida tropicalis [7] = assay: Antifungal activity against Candida tropicalis FMR 9726 assessed as compound concentration causing =>99% reduction in microbial growth; format: functional
Candida tropicalis [8] = assay: Antifungal activity against Candida tropicalis FMR 9727 infected in immunosuppressed OF1 mouse assessed as reduction in fungal tissue burden in mouse spleen at 25 mg/kg, po bid for 5 days; format: functional, organism-based; design: dose 25 mg/kg
Candida tropicalis [9] = assay: Antifungal activity against Candida tropicalis FMR 10237 infected in immunosuppressed OF1 mouse assessed as reduction in fungal tissue burden in mouse kidney at 50 mg/kg, po qd for 5 days; format: functional, organism-based; design: dose 50 mg/kg
Candida tropicalis [10] = assay: Antifungal activity against Candida tropicalis FMR 10239 infected in immunosuppressed OF1 mouse assessed as reduction in fungal tissue burden in mouse spleen at 25 mg/kg, po bid for 5 days; format: functional, organism-based; design: dose 25 mg/kg
Candida tropicalis [11] = assay: Antifungal activity against Candida tropicalis FMR 10237 infected in immunosuppressed OF1 mouse assessed as reduction in fungal tissue burden in mouse spleen at 25 mg/kg, po bid for 5 days; format: functional, organism-based; design: dose 25 mg/kg
Candida tropicalis [12] = assay: Antifungal activity against Candida tropicalis FMR 9726 infected in immunosuppressed OF1 mouse assessed as reduction in fungal tissue burden in mouse spleen at 50 mg/kg, po qd for 5 days; format: functional, organism-based; design: dose 50 mg/kg
Candida tropicalis [13] = assay: Antifungal activity against Candida tropicalis FMR 9727 infected in immunosuppressed OF1 mouse assessed as reduction in fungal tissue burden in mouse spleen at 50 mg/kg, po qd for 5 days; format: functional, organism-based; design: dose 50 mg/kg
Candida tropicalis [14] = assay: Antifungal activity against Candida tropicalis FMR 10240 assessed as inhibition of growth by broth dilution method; format: functional
Candida tropicalis [15] = assay: Antifungal activity against Candida tropicalis FMR 9727 infected in immunosuppressed OF1 mouse assessed as reduction in fungal tissue burden in mouse kidney at 25 mg/kg, po bid for 5 days; format: functional, organism-based; design: dose 25 mg/kg
Candida tropicalis [16] = assay: Antifungal activity against Candida tropicalis FMR 10236 assessed as compound concentration causing =>99% reduction in microbial growth; format: functional
Candida tropicalis [17] = assay: Antifungal activity against Candida tropicalis FMR 10239 infected in immunosuppressed OF1 mouse assessed as prolongation of mouse survival at 50 mg/kg, po qd for 5 days; format: functional, organism-based; design: dose 50 mg/kg
Candida tropicalis [18] = assay: Antifungal activity against Candida tropicalis FMR 8895 assessed as inhibition of growth by broth dilution method; format: functional
Candida tropicalis [19] = assay: Antifungal activity against Candida tropicalis FMR 9726 assessed as inhibition of growth by broth dilution method; format: functional
Candida tropicalis [20] = assay: Antifungal activity against Candida tropicalis FMR 10235 assessed as compound concentration causing =>99% reduction in microbial growth; format: functional
Candida tropicalis [21] = assay: Antifungal activity against Candida tropicalis FMR 10237 assessed as inhibition of growth by broth dilution method; format: functional
Candida tropicalis [22] = assay: Antifungal activity against Candida tropicalis FMR 10237 infected in immunosuppressed OF1 mouse assessed as reduction in fungal tissue burden in mouse kidney at 25 mg/kg, po bid for 5 days; format: functional, organism-based; design: dose 25 mg/kg
Candida tropicalis [23] = assay: Antifungal activity against Candida tropicalis FMR 8895 infected in immunosuppressed OF1 mouse assessed as prolongation of mouse survival at 50 mg/kg, po qd for 5 days; format: functional, organism-based; design: dose 50 mg/kg
Candida tropicalis [24] = assay: Antifungal activity against Candida tropicalis FMR 8898 assessed as inhibition of growth by broth dilution method; format: functional
Candida tropicalis [25] = assay: Antifungal activity against Candida tropicalis FMR 8895 infected in immunosuppressed OF1 mouse assessed as reduction in fungal tissue burden in mouse spleen at 50 mg/kg, po qd for 5 days; format: functional, organism-based; design: dose 50 mg/kg
Candida tropicalis [26] = assay: Antifungal activity against Candida tropicalis FMR 10239 assessed as inhibition of growth by broth dilution method; format: functional
Candida tropicalis [27] = assay: Antifungal activity against Candida tropicalis FMR 10237 infected in immunosuppressed OF1 mouse assessed as prolongation of mouse survival at 50 mg/kg, po qd for 5 days; format: functional, organism-based; design: dose 50 mg/kg
Candida tropicalis [28] = assay: Antifungal activity against Candida tropicalis FMR 10237 infected in immunosuppressed OF1 mouse assessed as prolongation of mouse survival at 25 mg/kg, po bid for 5 days; format: functional, organism-based; design: dose 25 mg/kg
Candida tropicalis [29] = assay: Antifungal activity against Candida tropicalis FMR 9726 infected in immunosuppressed OF1 mouse assessed as reduction in fungal tissue burden in mouse kidney at 50 mg/kg, po qd for 5 days; format: functional, organism-based; design: dose 50 mg/kg
Candida tropicalis [30] = assay: Antifungal activity against Candida tropicalis FMR 9726 infected in immunosuppressed OF1 mouse assessed as reduction in fungal tissue burden in mouse spleen at 25 mg/kg, po bid for 5 days; format: functional, organism-based; design: dose 25 mg/kg
Candida tropicalis [31] = assay: Antifungal activity against Candida tropicalis FMR 10237 infected in immunosuppressed OF1 mouse assessed as reduction in fungal tissue burden in mouse spleen at 50 mg/kg, po qd for 5 days; format: functional, organism-based; design: dose 50 mg/kg
Candida tropicalis [32] = assay: Antifungal activity against Candida tropicalis FMR 9727 assessed as compound concentration causing =>99% reduction in microbial growth; format: functional

CC[C@@H]([C@H](C)O)n1ncn(-c2ccc(N3CCN(c4ccc(OC[C@@H]5CO[C@@](Cn6cncn6)(c6ccc(F)cc6F)C5)cc4)CC3)cc2)c1=O [POSACONAZOLE] was tested, and the MFC (Candida tropicalis [1]) was greater than 16 µg/mL, the MIC50 (Candida tropicalis [2]) was less than 0.03 µg/mL and the Activity (Candida tropicalis [3]) was “Active”. The MFC (Candida tropicalis [4]) was greater than 16 µg/mL, the Activity (Candida tropicalis [5]) was “inactive” and the Activity (Candida tropicalis [6]) was “Active”. The MFC (Candida tropicalis [7]) was greater than 16 µg/mL, the Activity (Candida tropicalis [8]) was “Active” and the Activity (Candida tropicalis [9]) was “Active”. The Activity (Candida tropicalis [10]) was “Active”, the Activity (Candida tropicalis [11]) was “Active” and the Activity (Candida tropicalis [12]) was “Active”. The Activity (Candida tropicalis [13]) was “Active”, the MIC50 (Candida tropicalis [14]) was less than 0.03 µg/mL and the Activity (Candida tropicalis [15]) was “Active”. The MFC (Candida tropicalis [16]) was greater than 16 µg/mL, the Activity (Candida tropicalis [17]) was “Active” and the MIC50 (Candida tropicalis [18]) was greater than 16 µg/mL. It also gave an MIC50 (Candida tropicalis [19]) of 0.5 µg/mL (≈ 0.713 µM), an MFC (Candida tropicalis [20]) greater than 16 µg/mL and an MIC50 (Candida tropicalis [21]) of 1 µg/mL (≈ 1.43 µM). The Activity (Candida tropicalis [22]) was “Active”, the Activity (Candida tropicalis [23]) was “Active” and the MIC50 (Candida tropicalis [24]) was 0.125 µg/mL (≈ 0.178 µM). For the same molecule, the Activity (Candida tropicalis [25]) was “inactive”, the MIC50 (Candida tropicalis [26]) was less than 0.03 µg/mL and the Activity (Candida tropicalis [27]) was “Active”. For the same molecule, the Activity (Candida tropicalis [28]) was “Active”, the Activity (Candida tropicalis [29]) was “Active” and the Activity (Candida tropicalis [30]) was “Active”. For the same molecule, the Activity (Candida tropicalis [31]) was “Active” and the MFC (Candida tropicalis [32]) was greater than 16 µg/mL.
